# Results from US20030235543A1, “Topical administration of pharmacologically active bases for skin lightening” (priority 2002, published 2003).
# Read-outs that look alike come from different tables or passages of the source.
# Legend:
# [1] = In vitro keratolysis study: release of protein from ground callus (BioRad protein assay); settings: for Protein release compared with glycolic acid, other bases / water control: 10 minutes (Example 7); for Protein release compared with glycolic acid / water control: all time points (Example 6)
# Description: An in vitro keratolysis study was performed to compare the capability of glycolic acid and a base for removing protein from stratum corneum. Adult foot callus was collected, grounded and the portion between 50-80 mesh was used. Glycolic acid and sodium hydroxide solutions (concentration=0.05 M) were prepared in distilled water. Ten mg of ground callus powder was place in a test tube. Four ml of a test chemical was added to the callus and the test tube was placed in a shaker and incubated in a water bath at 37° C. for a predetermined incubation time. The incubation time periods were 10 min., 40 min, 2 hours, 4 hours, 6 hours and 24 hours. Six samples of each base were tested a total of six times each at each of the aforementioned incubation time periods.
# At the end of each incubation period, the test tube was removed from the shaker and the test tube was centrifuged. The solution was removed and filtered, and the protein in the solution was then determined using a BioRad® protein assay kit.
# [2] = cited from earlier work; for Alkalinity / base strength in words: aqueous solution
# [3] = cited from earlier work
# [4] = In vitro keratolysis study: release of protein from ground callus (BioRad protein assay); settings: incubation 40 minutes (Table 3)
# [5] = 0.05 M solutions, incubation time 10 minutes (Table 2, Example 7)
# [6] = 0.05 M solution, 37° C., incubation 10 min (Table 1)
# [7] = 0.05 M solution, 37° C., incubation 40 min (Table 1)
# [8] = 0.05 M solution, 37° C., incubation 2 hours (Table 1)
# [9] = 0.05 M solution, 37° C., incubation 4 hours (Table 1)
# [10] = 0.05 M solution, 37° C., incubation 6 hours (Table 1)
# [11] = 0.05 M solution, 37° C., incubation 24 hours (Table 1)
smiles,measurement,setting,value
CCC(N)CO (centres unmarked) [2-amino-1-butanol],Amount of Protein Released,[1]; [5],0.174 mg/4 ml
"CC(N)(CO)CO [2-amino-2-methyl-1,3-propanediol]",pH of Aqueous Solution (concentration),[2]; 0.1 m,10.8 (0.1 m)
CC(C)(N)CO [2-amino-2-methyl-1-propanol],pH of Aqueous Solution (concentration),[2]; 0.1 m,11.3 (0.1 m)
N [Ammonium hydroxide],pH of Aqueous Solution (concentration),[2]; 0.001 N,10.27
same,pH of Aqueous Solution (concentration),[2]; 1 N,11.27
"N.N.O=P(O)(O)O [Ammonium phosphate, dibasic]",pH of Aqueous Solution (concentration),[2]; concentration not given,˜8
N=C(N)NCCC[C@H](N)C(=O)O [Arginine],Amount of Protein Released,[1]; [5],0.153 mg/4 ml
C[N+](C)(C)CC(=O)O [Betaine],Amount of Protein Released,[1]; [5],0.144 mg/4 ml
[O]=[Ca] [Calcium oxide],Solubility in water,[3],"Soluble in water, Form Ca(OH)2"
NC1CCCCC1 [Cyclohexylamine],Alkalinity / base strength in words,[2],Strong base
OCCNCCO [Diethanolamine],Amount of Protein Released,[1]; [5],0.144 mg/4 ml
same,pH of Aqueous Solution (concentration),[2]; 0.1 N,11.0 (0.1 N)
NCCN [Ethylenediamine],Amount of Protein Released,[4]; 0.005% solution,0.059 mg/4 ml
same,Amount of Protein Released,[4]; 0.01% solution,0.080 mg/4 ml
same,Alkalinity / base strength in words,[2],Strong base
"O=C(O)CO [Glycolic Acid, reference compound]",Amount of Protein Released,[1]; [6],0.093 mg/4 ml
same,Amount of Protein Released,[1]; [7],0.175 mg/4 ml
same,Amount of Protein Released,[1]; [8],0.126 mg/4 ml
same,Amount of Protein Released,[1]; [9],0.219 mg/4 ml
same,Amount of Protein Released,[1]; [10],0.089 mg/4 ml
same,Amount of Protein Released,[1]; [11],0.173 mg/4 ml
same,Amount of Protein Released,[1]; [5],0.187 mg/4 ml
same,"Protein release compared with glycolic acid, other bases / water control",[1]; 0.05 M,did not show significant differences in comparison with water
same,Protein release compared with glycolic acid / water control,[1]; 0.05 M,did not show statistical differences in comparison with water
N[C@@H](Cc1c[nH]c2ccccc12)C(=O)O [L-tryptophan],Amount of Protein Released,[1]; [5],0.170 mg/4 ml
[O]=[Mg] [Magnesium oxide],pH of Aqueous Solution (concentration),[2]; saturated solution in water,10.3 (saturated aqueous solution)
"[Na+].[OH-] [NaOH, Sodium hydroxide]","Protein released at 6 hours and 24 hours compared with 10 minutes, 40 minutes, 2 hours and 4 hours",[1]; 0.05 M,significantly higher
same,Amount of Protein Released,[1]; [6],0.419 mg/4 ml
same,Amount of Protein Released,[1]; [7],0.739 mg/4 ml
same,Amount of Protein Released,[1]; [8],0.899 mg/4 ml
same,Amount of Protein Released,[1]; [9],1.003 mg/4 ml
same,Amount of Protein Released,[1]; [10],4.853 mg/4 ml
same,Amount of Protein Released,[1]; [11],5.148 mg/4 ml
same,Amount of Protein Released,[1]; [5],0.544 mg/4 ml
same,"Protein release compared with glycolic acid, other bases / water control",[1]; 0.05 M,released more protein
same,Protein release compared with glycolic acid / water control,[1]; 0.05 M,released more protein
same,Amount of Protein Released,[4]; 0.005% solution,0.059 mg/4 ml
same,Amount of Protein Released,[4]; 0.01% solution,0.074 mg/4 ml
same,pH of Aqueous Solution (concentration),[2]; 0.05%,12
same,pH of Aqueous Solution (concentration),[2]; 0.5%,13
same,pH of Aqueous Solution (concentration),[2]; 5%,14
NCCc1ccccc1 [Phenethylamine],Alkalinity / base strength in words,[2],Strong base
C1CCNCC1 [Piperidine],Amount of Protein Released,[4]; 0.005% solution,0.066 mg/4 ml
same,Amount of Protein Released,[4]; 0.01% solution,0.071 mg/4 ml
same,Alkalinity / base strength in words,[2],Strong base
CC(=O)[O-].[K+] [Potassium acetate],Amount of Protein Released,[4]; 0.005% solution,0.060 mg/4 ml
same,Amount of Protein Released,[4]; 0.01% solution,0.064 mg/4 ml
O=C([O-])[O-].[K+].[K+] [Potassium carbonate],Amount of Protein Released,[4]; 0.005% solution,0.068 mg/4 ml
same,Amount of Protein Released,[4]; 0.01% solution,0.073 mg/4 ml
O=C([O-])CC(O)(CC(=O)[O-])C(=O)[O-].[K+].[K+].[K+] [Potassium citrate],pH of Aqueous Solution (concentration),[2]; concentration not given,˜8.5
"O=P([O-])([O-])O.[K+].[K+] [Potassium phosphate, dibasic]",Alkalinity / base strength in words,[2],Aqueous solution is slightly alkaline
C1CCNC1 [Pyrrolidine],Amount of Protein Released,[4]; 0.005% solution,0.060 mg/4 ml
same,Amount of Protein Released,[4]; 0.01% solution,0.066 mg/4 ml
same,Alkalinity / base strength in words,[2],Strong base
"CC(=O)[O-].[Na+] [Sodium acetate, anhydrous]",pH of Aqueous Solution (concentration),[2]; 0.1 N,˜8.9 (0.1 N)
O=C([O-])[O-].[Na+].[Na+] [Sodium carbonate anhydrous],pH of Aqueous Solution (concentration),[2]; concentration not given,˜11.6
O=B[O-].[Na+] [Sodium metaborate],Alkalinity / base strength in words,[2],Strongly alkaline
"O=P([O-])([O-])O.[Na+].[Na+] [Sodium phosphate, dibasic, anhydrous]",pH of Aqueous Solution (concentration),[2]; 1% (1.0%),9.1 (1%)
"O.O.O=P([O-])([O-])O.[Na+].[Na+] [Sodium phosphate, dibasic, dihydrate]",pH of Aqueous Solution (concentration),[2]; concentration not given,˜9.5
"O.O.O.O.O.O.O.O.O.O.O.O.O=P([O-])([O-])O.[Na+].[Na+] [Sodium phosphate, dibasic, dodecahydrate]",pH of Aqueous Solution (concentration),[2]; concentration not given,˜9.5
"O.O.O.O.O.O.O.O=P([O-])([O-])O.[Na+].[Na+] [Sodium phosphate, dibasic, heptahydrate]",pH of Aqueous Solution (concentration),[2]; concentration not given,˜9.5
"O=P([O-])([O-])O.[Na+].[Na+] [Sodium phosphate, dibasic]",pH of Aqueous Solution (concentration),[2]; concentration not given,˜9.5
"O.O.O.O.O.O.O.O.O.O.O.O.O=P([O-])([O-])[O-].[Na+].[Na+].[Na+] [Sodium phosphate, tribasic dodecahydrate]",pH of Aqueous Solution (concentration),[2]; 0.1%,11.5
same,pH of Aqueous Solution (concentration),[2]; 0.5%,11.7
same,pH of Aqueous Solution (concentration),[2]; 1% (1.0%),11.9
"O=P([O-])([O-])[O-].[Na+].[Na+].[Na+] [Sodium phosphate, tribasic]",Amount of Protein Released,[4]; 0.005% solution,0.048 mg/4 ml
same,Amount of Protein Released,[4]; 0.01% solution,0.050 mg/4 ml
CN(C)C [Trimethylamine],Alkalinity / base strength in words,[2],Strong base
